Paper PMC4976923, “Potent Allosteric Dengue Virus NS5 Polymerase Inhibitors: Mechanism of Action and Resistance Profiling” (PLoS Pathogens, 2016)
Like-named read-outs stand apart in the source and are kept apart here.

What was measured:
[1] = test system: DENV4 FL NS5; test: Thermo-denaturation assay, recombinant FL NS5; type: binding; settings: +50 μM compound; DMSO control 42.5
Procedure: (§1) Site-directed alanine mutations of DENV4 FL NS5 cDNA were performed using pET28-D4-MY01-22713 NS5FL [23] as a template, according to the manufacturer’s protocol (Stratagene, USA). Protein expressions of DENV1-4 FL NS5 and their stability analyses by thermo-fluorescence were performed as described previously. DENV de novo initiation and elongation FAPA assays were earlier described. […]
(§2) 6 Fi g .5. Ef fects of N -pocket compounds on DENV pol ymerase thermo-stability. Melting
(§3) 7 temperatur e (Tm) w as ass essed b y thermo-d enatur ation in presence of the S YPRO Oran ge
(§4) 8 dye as described in Materials and Methods. (A-F) Representative meltin g curves of DEN V4
(§5) 10 inhibitors or 5 % DMSO control. […]
(§6) 16 controls treated with DMSO.

[2] = target: DENV4 RdRp domain (aa 268–900) (Dengue virus type 4, UniProt P09866); test: Thermo-denaturation assay, recombinant RdRp domain; type: binding; settings: +50 μM compound; DMSO control 50
Chain of DENV4 RdRp domain (aa 268–900) (P09866 2753-3387): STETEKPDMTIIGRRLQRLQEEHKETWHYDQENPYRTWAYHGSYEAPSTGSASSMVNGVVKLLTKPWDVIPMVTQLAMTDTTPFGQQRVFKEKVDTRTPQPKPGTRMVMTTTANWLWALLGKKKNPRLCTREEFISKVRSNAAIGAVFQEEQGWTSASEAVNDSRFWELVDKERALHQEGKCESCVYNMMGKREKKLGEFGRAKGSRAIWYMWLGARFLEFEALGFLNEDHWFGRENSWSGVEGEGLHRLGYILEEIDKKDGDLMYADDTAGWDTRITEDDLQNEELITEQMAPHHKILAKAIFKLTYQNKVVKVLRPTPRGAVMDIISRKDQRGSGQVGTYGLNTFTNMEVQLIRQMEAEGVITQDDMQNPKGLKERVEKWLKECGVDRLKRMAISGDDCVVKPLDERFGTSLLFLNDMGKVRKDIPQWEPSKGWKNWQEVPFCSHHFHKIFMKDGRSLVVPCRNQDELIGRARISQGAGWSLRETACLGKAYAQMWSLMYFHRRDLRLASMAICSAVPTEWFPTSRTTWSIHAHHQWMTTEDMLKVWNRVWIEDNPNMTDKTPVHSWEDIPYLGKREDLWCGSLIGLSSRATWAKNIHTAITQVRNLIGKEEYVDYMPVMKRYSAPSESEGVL
Procedure: as §1, §2, §3, §4, §5, §6

[3] = in vitro; type: cell-based; settings: human, HuH-7 (DENV2 replicon cells); 48 hr; ATP levels
Procedure: A549, BHK-21 and Huh7 cells bearing stable DENV2 sub-genomic replicon or transiently electroporated DENV2-NGC replicon or infectious virus cDNAs were seeded into 384-well microplate (3,000 cells per well). After over-night incubation at 37°C with 5% CO2, the cells were treated with 2-fold serially diluted compounds, starting from 20 or 50 μM. At 48 hr of post-incubation, renilla luciferase activities were measured with the ViviRen live-cell substrate (Promega, USA) according to the manufacturer’s protocol. CellTiter-Glo reagent (Promega, USA) was then added to determine cytotoxic effects of compounds. For the HCV replicon assay, Huh-7.5 cells harboring the HCV replicon were seeded into a 96-well microplate (20,000 cells per well). At 48 hr after compound treatment, cells were assayed for firefly luciferase activity by using a Bright-Glo luciferase assay (Promega, USA). NITD-008, a nucleoside inhibitor of DENV and HCV was added as a control.

[4] = target: T1, DENV2 FL NS5 (Dengue virus type 2, UniProt P14340); test: DENV2 FL NS5 de novo initiation FAPA assay; type: biochemical; settings: one experiment; read-out: DENV FL NS5 de novo initiation FAPA, IC50, DENV2
T1 construct: made in house
Procedure: (§7) DENV1-4 FL NS5 dnI assays were performed as described previously. Briefly, compounds from 0–20 or -100 μM concentrations are two-fold serially diluted into 384-well black opaque plates (Corning Costar), after which 100 nM DENV FL NS5 protein was added and the plates incubated at RT for 20 min. RNA and ATTO-CTP, ATP, GTP and UTP were then added and the plates incubated for another 120 min. […] For order-of-addition experiments, DENV4 FL NS5 was incubated for one hour at RT with RNA, ATP, and GTP or RNA, ATP, GTP and ATTO-CTP, followed by exposure to serially diluted compounds for 20 min at RT. The missing components (ATTO-CTP and UTP or UTP alone) were added and the reactions continued for 120 min after which STOP buffer was added as before. All datapoints were performed in duplicate wells. Each compound was tested at least twice.
(§8) 2 Co mpound testing with DENV dn I FAPA assays. Final dn I assa y reaction mixtures
(§9) 3 contained 100 nM DENV 5 ´UTR-L-3´UTR IVT RNA, 20 µ M ATP, 20 µM GTP, 20 µM
(§10) 4 UTP, 5 µM ATTO -CTP, and 100 nM of DENV FL NS5 protein in 15 µl in assa y buffer
(§11) 5 comprising 50 mM Tris/ HCl, pH 7.5, 10 mM KCl, 1 mM MgCl2, 0.3 mM MnCl2 (DENV2
(§12) 6 and 4) or 1 mM MnCl 2 (DENV1 and 3), 0.001% Triton- X-100 and 10 µ M cystein e [ 1] . To
(§13) 7 perform dose-respons e inhibition measurements, compounds from 0- 20 or - 100 µM
(§14) 8 concentr ations are two -fold seriall y diluted into 384-well black opaqu e plat es (Corning
(§15) 9 Costar), after which 100 nM DENV FL NS5 protein was added into resp ect ive wells. The
(§16) 10 plates wer e sealed, b riefl y shak en and centrif uged at 1500 rpm for 30 sec and incubated at RT
(§17) 11 for 15 min. Thereafter,RNA and ATTO -CTP, ATP, GTP and UTP were added to the wells to
(§18) 12 start the reactions. The pl ates wer e re-seal ed, shaken and centrifuged as before, followed b y
(§19) 13 incubation RT for 120 min.
(§20) 15 intestinal phosphatase (CIP), re- incubation at RT for 60 min and read on a Tecan Safire II
(§21) 16 microplate reader. For o r der-of-addition experiments, DENV4 FL NS5 was incubated for one
(§22) 17 hour at RT with RNA, ATP, and GTP or RNA, ATP, GTP and ATTO-CTP, followed by
(§23) 18 exposure to seriall y dilut ed compounds for 20 mi n at RT. The missing components (ATTO-
(§24) 19 CTP and UTP or UTP alone) were added and the reactions continued for 120 min after which
(§25) 20 STOP buffer was added as before. All datapoints were performed in duplicate wells. Each
(§26) 21 compound was tested at l east twice.
(§27) 23 Compound testing in DENV1-4 infected cells by high content imaging. Approximatel y 7
(§28) 24 × 10^3 A549 cells per well were s eeded into 384-well plates in Ham’s F-12K medium

[5] = test system: DENV2-NGC Ren-LUC Replicon in HuH-7; test: Stable HuH-7 DENV2-NGC renilla luciferase replicon assay; type: cell-based; settings: Dengue virus, DENV2, Huh-7, 48 h, read-out: HuH-7 DENV Replicon, DENV2, EC50
[6] = target: T2, DENV1 FL NS5 (Dengue virus type 1, UniProt P17763); test: DENV1 FL NS5 de novo initiation FAPA assay; type: biochemical; settings: one experiment; read-out: DENV FL NS5 de novo initiation FAPA, IC50, DENV1
T2 construct: 100 nM DENV FL NS5 protein was added; made in house
T2 sequence (P17763 2494-3392): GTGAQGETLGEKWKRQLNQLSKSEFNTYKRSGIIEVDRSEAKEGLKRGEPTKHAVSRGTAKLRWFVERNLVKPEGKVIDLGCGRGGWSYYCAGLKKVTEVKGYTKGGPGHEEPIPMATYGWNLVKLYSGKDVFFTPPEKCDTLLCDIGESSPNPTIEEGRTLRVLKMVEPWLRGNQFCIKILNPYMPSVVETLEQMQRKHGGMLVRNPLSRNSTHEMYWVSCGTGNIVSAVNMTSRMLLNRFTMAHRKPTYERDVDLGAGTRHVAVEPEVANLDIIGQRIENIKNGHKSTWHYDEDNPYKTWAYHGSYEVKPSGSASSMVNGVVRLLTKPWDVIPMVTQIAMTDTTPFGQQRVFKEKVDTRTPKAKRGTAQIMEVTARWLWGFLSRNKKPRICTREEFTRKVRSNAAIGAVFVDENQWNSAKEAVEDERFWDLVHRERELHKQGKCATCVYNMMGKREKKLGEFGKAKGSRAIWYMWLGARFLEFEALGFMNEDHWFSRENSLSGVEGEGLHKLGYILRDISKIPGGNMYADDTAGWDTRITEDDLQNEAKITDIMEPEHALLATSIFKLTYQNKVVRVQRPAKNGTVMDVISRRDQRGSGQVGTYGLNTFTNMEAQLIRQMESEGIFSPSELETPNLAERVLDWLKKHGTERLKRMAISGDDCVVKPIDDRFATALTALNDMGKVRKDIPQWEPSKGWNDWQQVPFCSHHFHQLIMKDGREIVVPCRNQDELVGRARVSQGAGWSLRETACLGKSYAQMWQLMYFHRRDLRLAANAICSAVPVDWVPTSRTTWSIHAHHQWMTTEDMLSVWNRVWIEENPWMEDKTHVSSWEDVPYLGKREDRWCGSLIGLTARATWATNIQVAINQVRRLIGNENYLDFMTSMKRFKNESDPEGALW
Procedure: (§29) DENV1-4 FL NS5 dnI assays were performed as described previously. Briefly, compounds from 0–20 or -100 μM concentrations are two-fold serially diluted into 384-well black opaque plates (Corning Costar), after which 100 nM DENV FL NS5 protein was added and the plates incubated at RT for 20 min. RNA and ATTO-CTP, ATP, GTP and UTP were then added and the plates incubated for another 120 min. Reactions were stopped with buffer containing 25 nM CIP, re- incubated at RT for 60 min and read on a Tecan Safire II microplate reader. For order-of-addition experiments, DENV4 FL NS5 was incubated for one hour at RT with RNA, ATP, and GTP or RNA, ATP, GTP and ATTO-CTP, followed by exposure to serially diluted compounds for 20 min at RT. The missing components (ATTO-CTP and UTP or UTP alone) were added and the reactions continued for 120 min after which STOP buffer was added as before. All datapoints were performed in duplicate wells. Each compound was tested at least twice.
as §8, §9, §10, §11, §12, §13, §14, §15, §16, §17, §18
(§30) 13 incubation RT for 120 min. Reactions were stopped by addition of 10 µl of 2.5X STOP
(§31) 14 buffer (200 mM NaCl, 25 mM MgCl2, 1.5M DEA, pH 10; Promega) with 25 nM calf
as §20, §21, §22, §23, §24, §25, §26, §27, §28

[7] = target: T3, DENV3 FL NS5 (Dengue virus type 3, UniProt Q6YMS4); test: DENV3 FL NS5 de novo initiation FAPA assay; type: biochemical; settings: one experiment; read-out: DENV FL NS5 de novo initiation FAPA, IC50, DENV3
T3 construct: 100 nM DENV FL NS5 protein was added; made in house
T3 sequence (Q6YMS4 2491-3390): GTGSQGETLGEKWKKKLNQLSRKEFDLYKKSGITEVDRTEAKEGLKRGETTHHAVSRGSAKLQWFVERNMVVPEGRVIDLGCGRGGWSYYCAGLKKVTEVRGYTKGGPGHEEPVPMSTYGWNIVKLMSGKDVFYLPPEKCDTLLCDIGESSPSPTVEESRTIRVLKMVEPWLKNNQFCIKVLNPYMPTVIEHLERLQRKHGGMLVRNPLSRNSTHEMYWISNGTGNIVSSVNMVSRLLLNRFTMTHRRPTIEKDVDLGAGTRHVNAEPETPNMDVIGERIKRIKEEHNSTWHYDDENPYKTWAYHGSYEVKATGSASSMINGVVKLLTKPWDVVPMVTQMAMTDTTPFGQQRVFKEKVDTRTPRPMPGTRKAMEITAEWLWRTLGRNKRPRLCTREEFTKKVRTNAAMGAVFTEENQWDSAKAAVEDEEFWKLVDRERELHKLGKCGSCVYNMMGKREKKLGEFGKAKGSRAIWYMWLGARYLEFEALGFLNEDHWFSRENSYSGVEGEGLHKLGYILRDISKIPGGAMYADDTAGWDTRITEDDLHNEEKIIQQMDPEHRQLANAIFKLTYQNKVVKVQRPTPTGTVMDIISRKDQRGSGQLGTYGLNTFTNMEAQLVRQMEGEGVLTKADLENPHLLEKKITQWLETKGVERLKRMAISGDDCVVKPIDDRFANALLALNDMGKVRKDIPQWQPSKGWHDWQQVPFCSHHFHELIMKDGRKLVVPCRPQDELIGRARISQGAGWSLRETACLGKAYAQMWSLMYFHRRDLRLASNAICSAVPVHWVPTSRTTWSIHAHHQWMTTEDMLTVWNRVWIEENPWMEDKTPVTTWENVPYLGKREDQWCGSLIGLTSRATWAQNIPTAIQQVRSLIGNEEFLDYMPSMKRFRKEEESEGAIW
Procedure: as §29, §8, §9, §10, §11, §12, §13, §14, §15, §16, §17, §18, §30, §31, §20, §21, §22, §23, §24, §25, §26, §27, §28

[8] = target: T4, DENV4 FL NS5 (Dengue virus type 4, UniProt P09866); type: biochemical
T4 construct: 100 nM DENV FL NS5 protein was added; made in house
T4 sequence (P09866 2488-3387): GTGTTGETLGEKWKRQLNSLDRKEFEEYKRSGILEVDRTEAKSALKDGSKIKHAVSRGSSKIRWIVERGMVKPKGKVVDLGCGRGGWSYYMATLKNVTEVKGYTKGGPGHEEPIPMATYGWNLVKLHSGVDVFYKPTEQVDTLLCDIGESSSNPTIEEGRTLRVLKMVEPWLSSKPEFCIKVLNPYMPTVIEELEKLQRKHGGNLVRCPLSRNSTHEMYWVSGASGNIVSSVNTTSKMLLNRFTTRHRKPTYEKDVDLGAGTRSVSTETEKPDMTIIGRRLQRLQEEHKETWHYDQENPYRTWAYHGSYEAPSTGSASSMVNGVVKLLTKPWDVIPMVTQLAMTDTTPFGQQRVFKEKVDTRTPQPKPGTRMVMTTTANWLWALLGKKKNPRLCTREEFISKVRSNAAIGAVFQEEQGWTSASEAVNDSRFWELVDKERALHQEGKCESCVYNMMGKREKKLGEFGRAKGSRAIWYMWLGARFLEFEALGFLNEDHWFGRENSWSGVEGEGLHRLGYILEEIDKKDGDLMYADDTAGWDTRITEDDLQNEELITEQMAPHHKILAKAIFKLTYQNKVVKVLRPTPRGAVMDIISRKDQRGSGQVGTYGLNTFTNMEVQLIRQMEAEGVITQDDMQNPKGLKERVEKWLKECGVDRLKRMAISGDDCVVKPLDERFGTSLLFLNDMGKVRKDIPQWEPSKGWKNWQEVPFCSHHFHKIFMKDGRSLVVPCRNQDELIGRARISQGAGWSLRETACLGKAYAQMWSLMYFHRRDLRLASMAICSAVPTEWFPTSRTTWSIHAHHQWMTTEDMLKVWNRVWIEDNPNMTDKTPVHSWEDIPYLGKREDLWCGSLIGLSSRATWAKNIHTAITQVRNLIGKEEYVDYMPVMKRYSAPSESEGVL

[9] = target: T4, DENV4 FL NS5; test: biochemical
Procedure: as §7, §8, §9, §10, §11, §12, §13, §14, §15, §16, §17, §18, §19, §20, §21, §22, §23, §24, §25
21 compound was tested at l east twice. […]

[10] = target: T4, DENV4 FL NS5; settings: Enzyme + compound 20 min, then ssRNA and nucleotides, 2 hr; read-out: DENV FL NS5 de novo initiation FAPA, IC50, DENV4; cited from earlier work
[11] = representative dose-response curve, read-out: IC50, best-fit value of representative curve (Fig 1A in S1 Text)

Structure (SMILES) | Protein melting temperature Tm with compound, FL NS5 [1] [°C] | Protein melting temperature Tm with compound, RdRp domain [2] [°C] | CC50 [3] [µM] | IC50 [4] [µM] | EC50 [5] [µM] | IC50 [6] [µM] | IC50 [7] [µM] | mode of inhibition with respect to viral RNA substrate ([8]; Lineweaver-Burk plots, 0–500 nM RNA) | mode of inhibition with respect to GTP ([8]; Lineweaver-Burk plots, 0–50 μM GTP) | mode of inhibition at high GTP concentrations ([8]; high GTP concentrations) | IC50 [9, 11] [µM] | IC50 [10] [µM] | IC50 ([9]; Enzyme + compound 20 min, then ssRNA and nucleotides, 2 hr, averaged from ≥3 experiments, read-out: DENV FL NS5 de novo initiation FAPA, IC50, DENV4) [µM]
O=C(O)Cc1cc(CC(=O)O)cc(-c2ccc(C#CCO)s2)c1 [Compound 15] | 52 | 65 | > 100 | 2.2 | > 100 | 0.3 | 0.46 | uncompetitive | uncompetitive inhibition | non-competitive mode of inhibition | – | – | –
COc1ccc(CC(=O)O)cc1-c1ccccc1 [Compound 3] | – | – | > 100 | 769 | > 100 | 769 | 796 | – | – | – | 788 | 733 ± 10.6 | –
COc1ccc(CC(=O)O)cc1-c1ccc(Cl)s1 [Compound 3i] | – | – | > 100 | 37.2 | > 100 | 46.6 | 66.8 | – | – | – | 30.9 | – | 30.7 ± 9.4
COc1cc(C)c(C(=O)NS(=O)(=O)c2ccccc2)cc1-c1ccc(C#CCO)s1 [Compound 25] | – | – | > 100 | 0.106 | 11.4 | 0.033 | 0.04 | – | – | – | 0.281 | 0.165 ± 0.108 | –
